Legend:
Format in all cases: cell-based, human
[1] = system: Bcl-2/Bax ratio; experiment: Calculation of Bcl-2/Bax ratio from densitometry of protein bands; details: 72 h, 0.896 at 0 Mm
Procedure: After 0, 20 and 40 mM of D-allose treatments for 72 h, DU145 cell line (1×10^6 cells in triplicate culture plates) was harvested into cell lysis buffer (Cell Signaling, Danvers, Mass., USA) supplemented with 1 mM PMSF. The cells were then sonicated, centrifuged and protein concentration was measured by Bradford assay with the Bio-Rad protein assay solution using bovine serum albumin (BSA) as standard. Proteins (30 μg) were separated on a 12.5% SDS-PAGE under reducing conditions and transferred onto a PVDF membrane (Santa Cruz Biotechnology, Santa Cruz, Calif., USA). Prestained protein marker, broad range: 6-175 kDa (New England Biolabs Inc., Ipswich, Mass., USA) run in parallel for detection of the molecular weights of the proteins. […] Membrane was probed with a goat derived horseradish peroxidase-conjugated anti-rabbit IgG (1:1000; Santa Cruz Biotechnology, Santa Cruz, Calif., USA), and proteins were detected by the enhanced chemiluminescence (ECL) detection system according to the vendor's protocol (Amersham Biosciences, Piscataway, N.J., USA) followed by X-ray exposure. […] Bcl-2/bax ratios of D-allose treated groups were calculated on the basis of the densitometric analysis of the corresponding protein bands and compared the values with that of the untreated control.

[2] = system: caspase 3; experiment: Western blot analysis of caspase 3 protein in DU145; details: DU145, 0, 20 and 40 mM, 72 h
Procedure: After 0, 20 and 40 mM of D-allose treatments for 72 h, DU145 cell line (1×10^6 cells in triplicate culture plates) was harvested into cell lysis buffer (Cell Signaling, Danvers, Mass., USA) supplemented with 1 mM PMSF. The cells were then sonicated, centrifuged and protein concentration was measured by Bradford assay with the Bio-Rad protein assay solution using bovine serum albumin (BSA) as standard. Proteins (30 μg) were separated on a 12.5% SDS-PAGE under reducing conditions and transferred onto a PVDF membrane (Santa Cruz Biotechnology, Santa Cruz, Calif., USA). Prestained protein marker, broad range: 6-175 kDa (New England Biolabs Inc., Ipswich, Mass., USA) run in parallel for detection of the molecular weights of the proteins. Membrane was blocked with 5% (w/v) skimmed milk in order to reduce non-specific binding and immunoblotting was performed using rabbit derived anti-Bcl-2, anti-Bax, anti-Caspase 3 and anti-PARP antibodies (1:500; Santa Cruz Biotechnology, Santa Cruz, Calif., USA). […] Membrane was probed with a goat derived horseradish peroxidase-conjugated anti-rabbit IgG (1:1000; Santa Cruz Biotechnology, Santa Cruz, Calif., USA), and proteins were detected by the enhanced chemiluminescence (ECL) detection system according to the vendor's protocol (Amersham Biosciences, Piscataway, N.J., USA) followed by X-ray exposure. […]

[3] = system: DU145 cell line; experiment: Mitochondrial Δψm by JC-1, flow cytometry; details: DU145, 20 and 40 mM, 24, 48 and 72 h
Procedure: Mitochondrial Δψm was measured by JC-1 mitochondrial membrane potential detection kit (Biotium Inc, Hayward, Calif., USA) according to the manufacturer's protocol. Briefly, DU145 cell line (1×10^6 cells in triplicate culture plates) was harvested after treatments with 0, 20 and 40 mM of D-allose for up to 72 h as mentioned above, stained with […] JC-1 reagent at 37° C. for 15 min and resuspended twice in 1× assay buffer. Changes in mitochondrial Δψm were measured at the single cell level by FACSCalibur flow cytometer (Becton Dickinson, San Jose, Calif., USA) under the following conditions: FL1, 511 volts; FL2, 389 volts; FL1-10.5% FL2; FL2-25.9% FL1; 488 nm argon excitation laser and 585 nm band pass filter. In total 10,000 cells were acquired for analysis by CellQuest software, version 3.0 (Becton Dickinson, San Jose, Calif., USA), and the quantification of cells with low mitochondrial Δψm as the percentage of total cell population was performed. Further, the DU145 cell line was seeded onto chamber slides with 1×10^5 cells/chamber in 500 μl of complete culture medium containing 0, 20 and 40 mM of D-allose for 72 h, permeabilized with 0.1% Triton, stained with 1×JC-1 reagent in dark, mounted with Prolong Antifade reagent (Molecular Probes, Eugene, Oreg., USA), and images (JC-1, green) were acquired by use of a fluorescence microscope (Axioplan 2, Carl Zeiss, Germany).

## O=C[C@H](O)[C@H](O)[C@H](O)[C@H](O)CO [D-allose]
[1]; DU145, 20 Mm
  Bcl-2/Bax ratio: 0.335
[1]; DU145, 40 Mm
  Bcl-2/Bax ratio: 0.126
[2]
  cleaved caspase 3 product: concomitant increase
  full length caspase 3 protein expression: remarkable dose-dependent decrease
[3]
  cells with low mitochondrial Δψm: appearance of a remarkable subpopulation of cells with low mitochondrial Δψm in a dose- and time-dependent manner

From patent US20110071094A1, “(D)-ALLOSE INDUCING PROGRAMMED CELL DEATH IN HORMONE REFRACTORY PROSTATE CANCER LINES” (INDUSTRY-ACADEMIC COOPERATION FOUDATION, GYEONGSANG …, priority 2008, published 2011)
